Results from patent publication US8486968B2, “Compounds” (Boehringer Ingelheim International GmbH, priority 2010, dated 2013).

How the values were obtained:
[1] = target: T1, mPGES-1 (Homo sapiens, UniProt O14684); experiment: A549 cell-based assay (PGE2 formation, IL-1β stimulated, 50% human serum); parameters: host or cells: A549 cells
T1 sequence (O14684 1-152): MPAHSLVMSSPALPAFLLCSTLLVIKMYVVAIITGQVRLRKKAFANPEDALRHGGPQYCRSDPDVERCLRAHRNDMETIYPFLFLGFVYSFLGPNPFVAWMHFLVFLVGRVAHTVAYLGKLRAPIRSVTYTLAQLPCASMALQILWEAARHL
Experimental: Although the enzymatic assay is a high throughput assay the disadvantage is that it uses a recombinant protein which is not in its natural environment. Accordingly a cellular assay was established in which a cell line of human origin (A549) expressing the mPGES-1 protein was used. In addition in order to mimic the situation in humans in which compounds can be bound to plasma proteins 50% human serum is added in the assay. By having the combination of testing mPGES-1 in a cellular environment and the presence of 50% human serum this assay has a higher relevance to judge the therapeutic potential of a mPGES-inhibitor than the pure enzyme assay.
A549 cells (ATCC: CCL-185) are grown to about 90% confluence in F-12K Nutrient Mixture (Kaighn's Mod. Gibco) containing 10% FBS in a humified incubator at 37° C. and 5% CO2. Cells were detached using Trypsin-EDTA. A549 cells were seeded in a 384-well collagene plate at a density of 7000 cells/well (50 μl) in F-12 medium containing 1% Penicillin-Streptomycin and 50% human serum. The cells were allowed to attach for 3-4 h. After that the cells were incubated for 20-24 h in F-12k medium supplemented with 50% human serum, 1% Penicillin-Streptomycin and containing IL-1β at a final concentration of 5 ng/ml as well as 10 nM arachidonic acid in the presence of a vehicle or a test compound. The total volume is 100 μl.
Concentrations of PGE2 in the cell free medium (10 μl) were measured using a commercially available HTRF kit from Cisbio (as described above). The PGE2 formation in the absence of test compound was taken as 100%.
IC50 values were derived from at 6-8 point titrations using conventional software.

[2] = target: T1, mPGES-1; experiment: mPGES-1 enzyme assay (HTRF detection of PGE2); type: biochemical; parameters: made in house; host or cells: Rosetta E. coli (membrane/microsome fraction)
Experimental: Microsomes from Rosetta E. coli bacteria expressing recombinant human mPGES-1 can be derived as described below:
Inoculate 5 ml LB with Ampicilin (50 μg/ml) and Chloramphenicol (34 μg/ml) with bacteria from freeze culture. Incubate 8 h at 37° C. with 200 rpm. Thereafter, inoculate 500-1000 ml LB containing Amp and Chloro with the 5 ml on culture and grow to OD640 of 0.8-1.0. Chill the culture to +4° C. before induction. Induce the culture with IPTG at a final concentration of 400 μM. Express the protein at room temp 18-23° C. with 200 rpm shaking over night.
The following steps can be performed on the following day: • 1. Spin down the cells in 250 ml centrifuge flasks for 15 min at 7000 rpm (Beckmann Coulte Avanti J-E centrifuge) • 2. Dissolve the pellet from 250 ml culture in 12.5 ml homogenization buffer • 3. (15 mM Tris-HCL pH8, 1 mM EDTA pH8, […], 2.5 mM GSH, 1 Tablet Protease inhibitor per 50 ml buffer) • 4. Disintegrate the cells by sonication, 5×10 seconds at 48% amplitude of a 750 W sonifier • 5. Add 2.5 ml MgCl2 (100 mM) and DNase 12.5 μl (0.8 mg/ml) and incubate on ice for 30 min • 6. Spin down the bacteria debris and save the supernatant, 7000 rpm for 15 min • 7. Isolate the protein containing membranes in the supernatant by ultracentrifugation 120000×g for 2 hour at 4° C. (Sorvall T880 rotor). • 8. Discard the supernatant and dissolve the pellet in 20 mM Potassium phosphate buffer pH 7.4 (KH2PO4 and K2HPO4) buffer by sonication (5×10 s, 30% of a 50 W sonifier) and aliquot the enzyme and store aliquots at −80° C.
Before each experiment is performed an aliquot of the enzyme is thawed and it can then be dissolved in 0.1 M Potassium phosphate buffer pH7.4 (KH2PO4 and K2HPO4) buffer containing 2.5 mM GSH.
The aim of this assay is the determine the affinity of a test compound for the mPGES-1 enzyme.
47 μl of recombinant human mPGES-1 (˜0.5 μg protein/well) containing microsomal suspension in a buffer containing GSH, (2.5 mmol/L L-Glutathione reduced, dissolved in 0.1 mol/L Phosphat Buffer pH 7.4) is dispensed in a 384-well plate and thereafter 1 μl of the test compound(s) is/are added and incubated for 25 minutes at room temperature. The enzyme reaction is started by the addition of 2 μl PGH2 (final conc. 2 μM) dissolved in water-free Diglyme. After 60 seconds the reaction is terminated by addition of a stop solution containing FeCl2 (10 μL 0.074 mol/l FeCl2). The samples are diluted between 1:25 in PBS (Phosphate Buffered Saline). 10 μl of the diluted samples are transferred to 384-well low volume plate. In order to quantify the amount of PGE2 that has been formed, a homogenous time resolved fluorescent (HTRF) detecting of PGE2 has been performed using a commercially available kit from Cisbio according to the manufactures recommendation. This HTRF-based assay has been described in detail (see: Goedken et al., J Biomol Screen, 2008, 13(7), 619-625). Briefly, the diluted samples are mixed with 5 μl PGE2-d2 conjungate and 5 μl anti-PGE2 cryptate conjungate. After an incubation period of the plates over night, the fluorescence is measured by the use of an appropriate microplate reader.
The fluorescence of Europium cryptate (maxex=307 nm, maxem=620 nm) and d2-PGE2 (maxex=620 nm, maxem=665 nm) are measured.
The extent of the specific HTRF is measured as a ratio of the emission intensity at 665 nm vs. that at 620 nm at an excitation puls of 320 nm. The quantification plate contains also wells with different concentrations of PGE2 as calibration curve for the calculation of the PGE2 concentrations from the HTRF ratio values.
From all mPGES enzyme assay the background is subtracted and the IC50 is calculated over a nonlinear regression with conventional software.

[3] = A549 cells, IL-1β 5 ng/ml, 20-24 h, Table B, read-out: mPGES-1 inhibitory effect, IC50, cell assay
[4] = Table C comparison of enzym and cell IC50, A549 cells, read-out: Cell IC50
[5] = Table C comparison of enzym and cell IC50, read-out: Enzym IC50
[6] = recombinant human mPGES-1 microsomes, PGH2 2 μM, Table A, read-out: mPGES-1 inhibitory effect, IC50, enzyme assay

SMILES	IC50 [1, 3] [nM]	IC50 [1, 4] [nM]	IC50 [2, 5] [nM]	IC50 [2, 6] [nM]
Cn1c(Nc2c(Cl)ccc(CNC(=O)C(C)(C)C(F)(F)F)c2Cl)nc2cc(C(=O)N[C@H]3CC[C@H](C(F)(F)F)CC3)c(N3CC[C@@H](F)C3)nc21 [Example 19]	6			4
CC(C)(C)C(=O)NCc1ccc(Cl)c(Nc2nc3cc(C(=O)N[C@H]4CC[C@H](C(F)(F)F)CC4)c(N4CC[C@@H](F)C4)nc3[nH]2)c1Cl [Example 7]	11			4
CC(NC(=O)c1cc2nc(Nc3c(Cl)ccc(CNC(=O)C(C)(C)C)c3Cl)n(C)c2nc1N1CCC(C(F)(F)F)CC1)C(F)(F)F (stereo not drawn) [Example 31]	20			3
CC(C)(C)C(=O)NCc1ccc(Cl)c(Nc2nc3cc(C(=O)N[C@H]4CC[C@H](C(F)(F)F)CC4)c(N4CC5CC5C4)nc3[nH]2)c1Cl (stereo partly drawn) [Example 12]	2			2
Cn1c(Nc2c(Cl)ccc(CNC(=O)C(C)(C)C)c2Cl)nc2cc(C(=O)Nc3ccc(OC(F)(F)F)cc3)c(N3CCC(C(F)(F)F)CC3)nc21 [Example 24, N-(4-Trifluoromethoxyphenyl)-2-{2,6-dichloro-3-[(2,2-dimethyl-propionylamino)-methyl]-phenylamino}-5-[4-trifluoromethyl-piperidinyl]-3-methyl-3H-imidazo[4,5-b]pyridine-6-carboxamide]	5			1
CC(C)(C)C(=O)NCc1ccc(Cl)c(Nc2nc3cc(C(=O)N[C@H]4CC[C@H](C(F)(F)F)CC4)c(N4CCOCC4)nc3n2CC(F)F)c1Cl [Example 25]	7			4
CN(Cc1nccn1C)c1nc2c(cc1C(=O)N[C@H]1CC[C@H](C(F)(F)F)CC1)nc(Nc1c(Cl)ccc(CNC(=O)C(C)(C)C)c1Cl)n2C [Example 16]	3			3
CN(C)C(=O)Cn1c(Nc2c(Cl)ccc(CNC(=O)C(C)(C)C)c2Cl)nc2cc(C(=O)N[C@H]3CC[C@H](C(F)(F)F)CC3)c(N3CCC(C(F)(F)F)CC3)nc21 [Example 29]	39			10
CN(CC(F)F)c1nc2c(cc1C(=O)N[C@H]1CC[C@H](C(F)(F)F)CC1)nc(Nc1cc(CNC(=O)C3(C(F)(F)F)CC3)ccc1Cl)n2C [Example 5]	58			9
CN(CC(F)F)c1nc2[nH]c(Nc3c(Cl)ccc(CNC(=O)C(C)(C)C)c3Cl)nc2cc1C(=O)NC1CCC(F)(F)CC1 [Example 10]	8			1
Cn1c(Nc2c(Cl)ccc(CNC(=O)C(C)(C)C)c2Cl)nc2cc(C(=O)N[C@H]3CC[C@H](C(F)(F)F)CC3)c(N3CC[C@@H](F)C3)nc21 [Example 18]	2			2
COCCN(C)c1nc2c(cc1C(=O)N[C@H]1CC[C@H](C(F)(F)F)CC1)nc(Nc1cc(CNC(=O)C3(C(F)(F)F)CC3)ccc1Cl)n2C [Example 6]				9

Other lines, results leading:

IC50 [1, 3] [nM]	IC50 [1, 4] [nM]	IC50 [2, 5] [nM]	IC50 [2, 6] [nM]	SMILES
25				Cn1c(Nc2c(Cl)ccc(CNC(=O)C(C)(C)C)c2Cl)nc2cc(C(=O)NC(Cc3ccccc3)C(F)(F)F)c(N3CCC(C(F)(F)F)CC3)nc21 (stereo not drawn) [Example 39]
	43	2		O=C(N[C@H]1CC[C@H](C(F)(F)F)CC1)c1cc2nc(Nc3c(Cl)cc(F)cc3Cl)[nH]c2nc1OCC(F)(F)F [reference compound]
12			4	CC(NC(=O)c1cc2nc(Nc3c(Cl)ccc(CNC(=O)C(C)(C)C)c3Cl)n(C)c2nc1N1CCC(C(F)(F)F)CC1)c1cccs1 (stereo not drawn) [Example 45]
	161	4		Cn1c(Nc2c(Cl)cc(F)cc2Cl)nc2cc(C(=O)N[C@H]3CC[C@H](C(F)(F)F)CC3)c(OCC(F)F)nc21 [reference compound]
2			1	Cn1c(Nc2c(Cl)ccc(CNC(=O)C(C)(C)C)c2Cl)nc2cc(C(=O)Nc3ccc(F)c(Cl)c3)c(N3CCC(C(F)(F)F)CC3)nc21 [Example 41]
56			4	Cn1c(Nc2c(Cl)ccc(CNC(=O)C(C)(C)C)c2Cl)nc2cc(C(=O)Nc3cccc(C(F)(F)F)n3)c(N3CCC(C(F)(F)F)CC3)nc21 [Example 44]
	8	1		Cn1c(Nc2cc(CNC(=O)C3(C(F)(F)F)CC3)ccc2Cl)nc2cc(C(=O)Nc3ccc(F)c(Cl)c3)c(OCC(F)F)cc21 [reference compound]
8			2	Cn1c(Nc2c(Cl)ccc(CNC(=O)C(C)(C)C)c2Cl)nc2cc(C(=O)NCCCC(F)(F)F)c(N3CCC(C(F)(F)F)CC3)nc21 [Example 33]
6			5	Cn1c(Nc2c(Cl)ccc(CNC(=O)C(C)(C)C)c2Cl)nc2cc(C(=O)NCc3ncccc3C(F)(F)F)c(N3CCC(C(F)(F)F)CC3)nc21 [Example 43]
8			< 1	Cn1c(Nc2c(Cl)ccc(CNC(=O)C(C)(C)C)c2Cl)nc2cc(C(=O)NCC3CC3)c(N3CCC(C(F)(F)F)CC3)nc21 [Example 46]
16			5	Cn1c(Nc2c(Cl)ccc(CNC(=O)C(C)(C)C)c2Cl)nc2cc(C(=O)NC3CC(F)(F)C3)c(N3CCC(C(F)(F)F)CC3)nc21 [Example 35]
6			2	Cn1c(Nc2c(Cl)ccc(CNC(=O)C(C)(C)C)c2Cl)nc2cc(C(=O)N[C@H](c3ccccc3)C(F)(F)F)c(N3CCC(C(F)(F)F)CC3)nc21 [Example 36]
8			3	Cn1c(Nc2c(Cl)ccc(CNC(=O)C(C)(C)C)c2Cl)nc2cc(C(=O)NC3(c4ccc(F)cc4)CC3)c(N3CCC(C(F)(F)F)CC3)nc21 [Example 37]
